Where “and” joins values, the source holds several entries; their conditions need not be identical. Identical values can stand only once. Counter-ions that a name gives are not always drawn.
Tested on: C. elegans
Conditions: Table S2, C. elegans SS assay, 110 μM, averages of 4 data points

SMILES | Percentage of motility inhibition 0 h [%] | Percentage of motility inhibition 24 h
CO[C@@H]1C=C2[C@@H]3CC(C)(C)CC[C@]3(CO)[C@H](O)C[C@@]2(C)[C@]2(C)CC[C@H]3[C@](C)(CO)[C@@H](O[C@@H]4O[C@H](C)[C@H](O)[C@H](O[C@@H]5O[C@H](CO)[C@@H](O)[C@H](O)[C@H]5O)[C@H]4O)CC[C@]3(C)[C@@H]12 [Saikosaponin B4] | 13 | 36%
C[C@@H]1O[C@@H](O[C@@H]2[C@H](O)[C@@H](O)[C@H](O[C@H]3CC[C@@]4(C)C(CC[C@]5(C)C4C=C[C@]46OC[C@@]7(CCC(C)(C)CC74)[C@@H](O)C[C@]65C)C3(C)C)O[C@@H]2CO[C@@H]2O[C@H](CO)[C@@H](O)[C@H](O)[C@H]2O)[C@H](O)[C@H](O)[C@H]1O (stereo partly drawn) [Saikosaponin C] | 24 | 0%
C[C@H]1O[C@@H](O[C@H]2CC[C@@]3(C)[C@@H](CC[C@]4(C)[C@@H]3C=C[C@]35OC[C@@]6(CCC(C)(C)C[C@H]63)[C@H](O)C[C@]54C)[C@]2(C)CO)[C@H](O)[C@@H](O[C@@H]2O[C@H](CO)[C@@H](O)[C@H](O)[C@H]2O)[C@H]1O [Saikosaponin D] | 34 | 52%
C[C@@H]1O[C@@H](O[C@H]2[C@H](O)[C@@H](O)[C@H](O[C@H]3CC[C@]4(C)[C@H]5CC=C6[C@@H]7CC(C)(C)CC[C@]7(CO)[C@@H](O)C[C@@]6(C)[C@]5(C)CC[C@H]4C3(C)C)O[C@@H]2CO[C@@H]2O[C@H](CO)[C@@H](O)[C@H](O)[C@H]2O)[C@H](O)[C@H](O)[C@H]1O [Saikosaponin F] | 1 | 0%
CC[C@@H](C(=O)[C@@H](C)[C@@H](O)[C@H](C)[C@@H]1O[C@@H]([C@@H](CC)C(=O)O)CC[C@@H]1C)[C@H]1O[C@]2(C=C[C@@H](O)[C@]3(CC[C@@](C)([C@H]4CC[C@](O)(CC)[C@H](C)O4)O3)O2)[C@H](C)C[C@@H]1C [Salinomycin (sodium salt)] | 28 | 18%
C[n+]1cc2c3c(ccc2c2ccc4cc5c(cc4c21)OCO5)OCO3.[Cl-] [Sanguinarine (chloride)] | – | 20% and 27%
CCOC(=O)NCCCC(=O)NCCc1ccccc1 [Santacruzamate A] | 0 | 0%
CC(C)(C)NC(=O)[C@@H]1C[C@@H]2CCCC[C@@H]2CN1C[C@@H](O)[C@H](Cc1ccccc1)NC(=O)[C@H](CC(N)=O)NC(=O)c1ccc2ccccc2n1.CS(=O)(=O)O [Saquinavir (Mesylate)] | 0 | 10%
Cl.O=C(O)c1cn(-c2ccc(F)cc2)c2cc(N3CCNCC3)c(F)cc2c1=O [Sarafloxacin (hydrochloride)] | 32 | 3%
COC(=O)C1=COC2OC3CC1C2C(C)O3 (stereo not drawn) [Sarracenin] | 11 | 27%
COc1ccc(-c2cc(=O)c3c(O)cc(O)c(-c4cc(-c5cc(=O)c6c(O)cc(OC)cc6o5)ccc4OC)c3o2)cc1 [Sciadopitysin] | 0 | 21%
CC1(C)CCC[C@]2(C)[C@H]3CC(=O)O[C@]3(C)CC[C@@H]12 [Sclareolide] | 1 | 25%
CN1[C@@H]2CC(O)C[C@H]1[C@@H]1O[C@@H]12 (stereo partly drawn) [Scopine] | 13 | 5%
COc1ccc(-c2cc(=O)c3c(OC)c(OC)c(OC)cc3o2)cc1 [Scutellarein tetramethyl ether] | 0 | 0%
